Two compounds from patent publication US20080280996A1, “Use of Carophyllenes in the Manufacture of Medicaments and Treatment of Bodily Conditions of Inflammation and Inflammatory Pain” (priority 2004, published 2008) can be followed below.

Each structure is given as a SMILES string.

For assay [1], the system named is carrageenin-induced paw oedema. The assay can be described thus: Carrageenin oedema in mouse paw. It is filed as in vivo. The following applies: mice, carrageenin intraplantar; alpha-humulene 50 mg/kg orally 1 h before; dexamethasone 0.5 mg/kg subcutaneously 4 h before; 30 min to 48 h. How it is done: The test used below is described by Cunha et. al. in the publication Life Sci. 70:159-169, 2001. […] The left paw received the same volume of saline and was taken as a negative control. The swelling was measured with a plethysmometer (manufacturer: Ugo Basile, Italy) along various time intervals after the injection of the phlogistic agent. The difference between the volumes of the right and the left paw were quantified (in ml) and taken as an index of oedema. One hour before the test the animals were systemically treated (orally) with 50 mg/kg of alphahumulene or trans-caryophyllene. Graph 2 below compares the inhibition of the volume of the oedema by administration of either alpha-humulene or trans-caryophyllene with inhibition obtained with the administration of dexamethasone (0.5 mg/kg, injected subcutaneously 4 h before test) and used as positive control. Oedema volume measurement time point intervals were 30, 60, 120 and 240 min, 24 h and 48 h. Each point represents the average of 5 animals, and the vertical bars the mean standard error deviation.

The subject of the next assay is TNFα. Briefly: Levels of pro-inflammatory cytokine TNFα in carrageenin-injected rat paw (Elisa). It is filed as in vivo. The following applies: 50 mg/kg orally 60 minutes before carrageenin 300 μg/paw, tissue after 180 minutes. How it is done: The test used below is described by Campos et. al. in the publication Br. J. Pharmacol. 135: 1107-1114, 2002, with minor modifications.
Male […]-180 g rats were orally given 50 mg/kg of trans-caryophyllene. Animals treated with 0.9% (0.1 ml/10 g) saline were used as control. Another group of animals was treated with 0.5 mg/kg dexamethasone, subcutaneously, 4 hours before the test, and used as positive control. After 60 minutes, the animals received intraplantar injections of 100 μl of carrageenin (300 μg/paw) and were sacrificed after 180 minutes. Control animals received saline. The subcutaneous tissue of the injected paws was removed and put in a phosphate buffer containing 0.5% tween 20, 0.1 mM benzametonium chloride, 10 mM EDTA, 2 μg/m aprotinin, 0.1 mM PMSF (phenyl methyl sulfonyl fluoride) and 0.5% BSA (bovine serum albumin). The tissues were homogenized and centrifuged at 3000 g, for 10 min, at −4° C. The supernatant was used in the test. The levels of TNFαwere measures with an Elisa kit, according to the manufacturer's instructions (R & D Systems®, USA). The tests were performed in duplicate, and repeated three times. The answers are expressed in pg/mg of tissue. […]
Background: Carrageenan injected into the paw causes an acute inflammation.

Take `C/C1=C\CC/C(C)=C/CC(C)(C)/C=C/C1` [alpha-humulene]: the “inflammatory volume (paw oedema volume)” value in assay [1] is given as “reduced the inflammatory volume”. With `C=C1CC/C=C(\C)CC[C@@H]2[C@@H]1CC2(C)C` [trans-caryophyllene], in the assay on TNFα, the “production of pro-inflammatory cytokine TNFα induced by carrageenin in the paws of rats” value was “markedly inhibited the production”.
